Results from ChEMBL document CHEMBL1156464, “Unique antiviral mechanism discovered in anti-hepatitis B virus research with a natural product analogue” (Proc Natl Acad Sci U S A, 2007).
Active and inactive are the calls of the source. The rule behind the calls is not given here.

What was measured:
[1] = system: Hepatitis B virus; experiment: Antiviral activity against HBV in mouse ayw wild type HBV-Met cells assessed as inhibition of viral DNA replication; assay type: functional, organism-based
[2] = system: Hepatitis B virus; experiment: Antiviral activity against HBV in HBV-Met cells assessed as inhibition of viral pre genomic RNA replication; assay type: functional, organism-based
[3] = system: Hepatitis B virus; experiment: Antiviral activity against HBV in adriamycin-resistant HepD2 cells with RTM20V and RTV180M mutation assessed as inhibition of viral DNA replication; assay type: functional, organism-based
[4] = system: Hepatitis B virus; experiment: Inhibition of HBV promoter in human HepG2(2.2.15) cells by luciferase reporter gene assay; assay type: functional, organism-based
[5] = system: Hepatitis B virus; experiment: Antiviral activity against HBV in human HepG2(2.2.15) cells assessed as inhibition of viral pre-genomic RNA replication; assay type: functional, organism-based
[6] = Cytotoxicity against HBV transfected human HepG2 cells by MTT assay; assay type: cell-based
[7] = system: Hepatitis B virus; experiment: Antiviral activity against HBV in adriamycin-resistant wild type HepW10 cells assessed as inhibition of viral DNA replication; assay type: functional, organism-based
[8] = system: Hepatitis B virus; experiment: Antiviral activity against HBV in human HepG2(2.2.15) cells assessed as inhibition of viral 2.4/2.1RNA replication; assay type: functional, organism-based
[9] = system: Hepatitis B virus; experiment: Antiviral activity against HBV in mouse HBV-Met cells assessed as inhibition of viral 2.4/2.1RNA replication; assay type: functional, organism-based
[10] = system: Hepatitis B virus; experiment: Antiviral activity against HBV in human HepW10 cells assessed as inhibition of viral pre genomic RNA replication; assay type: functional, organism-based
[11] = Cytotoxicity against HBV transfected human adriamycin-resistant wild type HepW10 cells by MTT assay; assay type: cell-based
[12] = system: Hepatitis B virus; experiment: Antiviral activity against HBV in ayw wild type HepG2(2.2.15) cells assessed as inhibition of viral DNA replication; assay type: functional, organism-based
[13] = system: Hepatitis B virus; experiment: Effect on virus RNA stability on doxycyclin-induced HBV pre genomic RNA production in Met-On-TRE HBV cells treated with 3 uM drug after doxycycline removal; assay type: functional, organism-based
[14] = Cytotoxicity against HBV transfected human ayw wild type HepG2(2.2.15) cells by MTT assay; assay type: cell-based; details: HBV-transfected ayw wild type HepG2(2.2.15) cells
[15] = system: Hepatitis B virus; experiment: Inhibition of HBV promoter in human HepG2 cells by luciferase reporter gene assay; assay type: functional, organism-based
[16] = Cytotoxicity against HBV transfected human adriamycin-resistant HepD2 cells with RTM20V and RTV180M mutation by MTT assay; assay type: cell-based
[17] = system: Hepatitis B virus; experiment: Antiviral activity against HBV in human HepD2 cells assessed as inhibition of viral pre genomic RNA replication; assay type: functional, organism-based
[18] = system: Hepatitis B virus; experiment: Antiviral activity against HBV in human HepD2 cells assessed as inhibition of viral 2.4/2.1RNA replication; assay type: functional, organism-based
[19] = system: Hepatitis B virus; experiment: Antiviral activity against HBV in human HepW10 cells assessed as inhibition of viral 2.4/2.1RNA replication; assay type: functional, organism-based
[20] = system: Hepatitis B virus; experiment: Decrease in HBV DNA level in human HepG2 cells at 2 uM after 48 hrs by time course study; assay type: functional, organism-based
[21] = system: Hepatitis B virus; experiment: Decrease in HBV protein level in human HepG2 cells at 2 uM after 18 to 24 hrs by time course study; assay type: functional, organism-based
[22] = system: Hepatitis B virus; experiment: Decrease in HBV RNA in human HepG2 cells at 2 uM after 18 to 24 hrs by time course study; assay type: functional, organism-based
[23] = system: HepG2 2.2.15; experiment: Decrease in binding of HBV promoter preC/C-EnhII to human FTF in HepG2(2.2.15) cells; assay type: cell-based
[24] = Down regulation of HNH3-beta in human HepG2(2.2.15) cells expressing HBV at 0.3 uM by Western blotting; assay type: functional, cell-based
[25] = system: Hepatitis C virus; experiment: Antiviral activity against hepatitis C virus; assay type: functional, organism-based, Hepacivirus hominis
[26] = Down regulation of HNH4-alpha in human HepG2(2.2.15) cells expressing HBV at 0.3 uM by Western blotting; assay type: functional, cell-based
[27] = system: Human gammaherpesvirus 4; experiment: Antiviral activity against Epstein-Barr virus; assay type: functional, organism-based
[28] = system: human papillomavirus 11; experiment: Antiviral activity against human papilloma virus 11; assay type: functional, organism-based
[29] = system: HepG2; experiment: Down regulation of HNH4-alpha in human HepG2 cells expressing HBV at 0.3 uM by Western blotting; assay type: functional, cell-based
[30] = system: HepG2; experiment: Decrease in binding of HBV promoter preC/C-EnhII to HNF4-2 in human HepG2 cells; assay type: cell-based
[31] = system: HepG2; experiment: Decrease in binding of HBV promoter preC/C-EnhII to HNF3 in human HepG2 cells; assay type: cell-based
[32] = system: HepG2; experiment: Decrease in binding of HBV promoter preC/C-EnhII to HNF4-1 in human HepG2 cells; assay type: cell-based
[33] = system: Human alphaherpesvirus 1; experiment: Antiviral activity against HSV1; assay type: functional, organism-based
[34] = system: Cytomegalovirus; experiment: Inhibition of CMV promoter in human HepG2(2.2.15) cells by luciferase reporter gene assay after 16 to 24 hrs; assay type: functional, organism-based; details: TDE = time-dependent effect
[35] = Down regulation of HNH3-alpha mRNA in human HepG2(2.2.15) cells expressing HBV at 0.3 uM by Northern blotting; assay type: functional, cell-based
[36] = system: Hepatitis B virus; experiment: Antiviral activity against HBV assessed as inhibition of viral replication; assay type: functional, organism-based
[37] = system: HepG2 2.2.15; experiment: Decrease in binding of HBV promoter preC/C-EnhII to human HNF4-1 in HepG2(2.2.15) cells; assay type: cell-based
[38] = system: Hepatitis B virus; experiment: Effect on virus RNA stability on doxycyclin-induced HBV pre genomic RNA production in Met-On-TRE HBV cells treated with 0.3 uM drug after doxycycline removal; assay type: functional, organism-based
[39] = system: HepG2 2.2.15; experiment: Decrease in binding of HBV promoter preC/C-EnhII to human HNF3 in HepG2(2.2.15) cells; assay type: cell-based
[40] = system: HepG2; experiment: Down regulation of HNH3-beta in human HepG2 cells expressing HBV at 0.3 uM by Western blotting; assay type: functional, cell-based
[41] = system: Hepatitis B virus; experiment: Effect on HBV viral core protein degradation on cyclohexamide terminated cellular protein synthesis in human HepG2(2.2.15) cells at 0.3 uM; assay type: functional, organism-based
[42] = system: Human immunodeficiency virus; experiment: Antiviral activity against HIV; assay type: functional, organism-based; details: Human immunodeficiency virus 1
[43] = system: HepG2; experiment: Decrease in binding of HBV promoter preC/C-EnhII to FTF2 in human HepG2 cells; assay type: cell-based
[44] = system: HepG2 2.2.15; experiment: Decrease in binding of HBV promoter preC/C-EnhII to human HNF4-2 in HepG2(2.2.15) cells; assay type: cell-based

## Nc1ccn([C@@H]2CS[C@H](CO)O2)c(=O)n1 [LAMIVUDINE]
[1]
  IC50: 200 nM
[2]
  Activity: inactive
[3]
  IC50: > 3000 nM
[4]
  IC50: 80 nM
[5]
  Activity: inactive
[6]
  CC50: 100000 nM
[7]
  IC50: 100 nM
[8]
  Activity: inactive
[9]
  Activity: inactive
[10]
  Activity: inactive
[11]
  CC50: > 100000 nM
[12]
  IC50: 50 nM
[13]
  Activity: inactive
[14]
  CC50: > 100000 nM
[15]
  IC50: > 1000 nM
[16]
  CC50: > 100000 nM
[17]
  Activity: inactive
[18]
  Activity: inactive
[19]
  Activity: inactive

## O=c1[nH][nH]c(=O)c2c(-c3ccc4c(c3)OCO4)c3c4c(ccc3cc12)OCO4
[20]
  Activity: Active
[1]
  IC50: 300 nM
[21]
  Activity: Active
[2]
  IC50: 500 nM
[22]
  Activity: Active
[23]
  Activity: Active
[24]
  Activity: Active
[25]
  IC50: 10000 nM
[3]
  IC50: 30 nM
[4]
  IC50: 80 nM
[26]
  Activity: Active
[5]
  IC50: 300 nM
[27]
  IC50: > 25000 nM
[6]
  CC50: 29000 nM
[28]
  IC50: 5800 nM
[7]
  IC50: 200 nM
[29]
  Activity: inactive
[8]
  IC50: 900 nM
[9]
  IC50: 1000 nM
[30]
  Activity: inactive
[31]
  Activity: inactive
[32]
  Activity: inactive
[33]
  IC50: 1200 nM
[34]
  Activity: tde
[10]
  IC50: 400 nM
[35]
  Activity: inactive
[36]
  IC50: 100 nM
[37]
  Activity: Active
[11]
  CC50: 13000 nM
[38]
  Activity: inactive
[39]
  Activity: Active
[40]
  Activity: Active
[12]
  IC50: 80 nM
[41]
  Activity: inactive
[14]
  CC50: 9000 nM
[42]
  IC50: 15000 nM
[15]
  IC50: > 1000 nM
[43]
  Activity: Active
[16]
  CC50: 12000 nM
[44]
  Activity: Active
[17]
  IC50: 90 nM
[18]
  IC50: 1500 nM
[19]
  IC50: > 3000 nM

## O=C1NCc2c1cc1ccc3c(c1c2-c1ccc2c(c1)OCO2)OCO3
[25]
  IC50: 1000 nM
[4]
  IC50: 80 nM
[27]
  IC50: 11000 nM
[28]
  IC50: 200 nM
[33]
  IC50: 290 nM
[36]
  IC50: 80 nM
[42]
  IC50: 4000 nM
[15]
  IC50: > 1000 nM
